Reference: ChEMBL document CHEMBL1129150, “Novel antifungal 2-aryl-1-(1H-1,2,4-triazol-1-yl)butan-2-ol derivatives with high activity against Aspergillus fumigatus” (1996)
Values after ≈ are worked out from the molar mass of the structure shown. Values joined by “and” are separate entries in the source; they are usually repeats but may differ in a detail not shown here. Identical values can stand only once.

Assays:
Type in all cases: functional
[1] = system: Aspergillus fumigatus; assay: In vitro antifungal activity against Aspergillus fumigatus after 24 hr. incubation
[2] = system: Mus musculus; assay: Number of mice cured after 10 days against Aspergillus fumigatus on intravenous infection to mice
[3] = system: Aspergillus fumigatus; assay: In vitro for the antifungal activity against Aspergillus fumigatus.
[4] = system: Mus musculus; assay: Number of mice surviving due to reduction in kidney fungal burden after 10 days against Aspergillus fumigatus on intravenous infection to mice
[5] = system: Candida albicans; assay: In vitro antifungal activity against Candida albicans after 24 hr. incubation
[6] = system: Cryptococcus neoformans; assay: In vitro antifungal activity against Cryptococcus neoformans
[7] = system: Nakaseomyces glabratus; assay: In vitro antifungal activity against Candida glabrata
[8] = system: Pichia kudriavzevii; assay: In vitro antifungal activity against Candida krusei
[9] = system: Candida albicans; assay: In vitro antifungal activity against Candida albicans
[10] = Aspergillus fumigatus, 24 h, read-out: MFC
[11] = Aspergillus fumigatus, read-out: MIC

| SMILES | MFC [1, 10] | No. of cures [2] | MIC [3, 11] | No. of survivors [4] | other results |
| --- | --- | --- | --- | --- | --- |
| C[C@@H](c1ccncc1)[C@](O)(Cn1cncn1)c1ccc(F)cc1F | 0.09 µg/mL (≈ 0.272 µM) | 0 | 0.05 µg/mL (≈ 0.151 µM) | 4 |  |
| OC(Cc1ccccn1)(Cn1cncn1)c1ccc(F)cc1F (stereo not given) |  |  | 25 µg/mL (≈ 79 µM) |  |  |
| C[C@@H](c1ncncc1F)[C@](O)(Cn1cncn1)c1ccc(F)cc1F [VORICONAZOLE] |  |  | 0.09 µg/mL (≈ 0.258 µM) |  | MIC [5]: 0.03 µg/mL (≈ 0.0859 µM); MIC [6]: 0.39 µg/mL (≈ 1.12 µM); MIC [7]: 0.19 µg/mL (≈ 0.544 µM); MIC [8]: 0.24 µg/mL (≈ 0.687 µM) |
| CC(c1ccncn1)C(O)(Cn1cncn1)c1ccc(F)cc1F (stereo not given) | 0.39 µg/mL (≈ 1.18 µM) | 0 | 0.39 µg/mL (≈ 1.18 µM) | 3 |  |
| CC(c1cccnc1)C(O)(Cn1cncn1)c1ccc(F)cc1F (stereo not given) |  |  | 0.39 µg/mL (≈ 1.18 µM) |  |  |
| CC(c1ccccn1)C(O)(Cn1cncn1)c1ccc(F)cc1F (stereo in doubt; 23b) |  |  |  |  | MFC [1]: 1.56 µg/mL (≈ 4.72 µM); MIC [3]: 0.39 µg/mL (≈ 1.18 µM) |
| OC(Cc1ccncc1)(Cn1cncn1)c1ccc(F)cc1F (stereo not given) |  |  | 3.1 µg/mL (≈ 9.8 µM) |  |  |
| CC(c1ccccn1)C(O)(Cn1cncn1)c1ccc(F)cc1F (stereo in doubt; 23a) |  |  |  |  | MFC [1]: 100 µg/mL (≈ 303 µM); MIC [3]: 12.5 µg/mL (≈ 37.8 µM) |
| CC(c1ccncc1F)C(O)(Cn1cncn1)c1ccc(F)cc1F (stereo not given) | 0.19 µg/mL (≈ 0.545 µM) | 5 | 0.098 µg/mL (≈ 0.281 µM) | 5 |  |
| CC(n1cncn1)C(O)(Cn1cncn1)c1ccc(F)cc1F (stereo not given) | 25 µg/mL (≈ 78.1 µM) |  | 12.5 µg/mL (≈ 39 µM) |  |  |
| CC(c1ncnc(Cl)c1Cl)C(O)(Cn1cncn1)c1ccc(F)cc1F (stereo not given) | 12.5 µg/mL (≈ 31.2 µM) |  | 3.1 µg/mL (≈ 7.75 µM) |  |  |
| CC(c1ncncc1Cl)C(O)(Cn1cncn1)c1ccc(F)cc1F (stereo not given) | 1.56 µg/mL (≈ 4.26 µM) |  | 0.39 µg/mL (≈ 1.07 µM) |  |  |
| CCC(C)n1ncn(-c2ccc(N3CCN(c4ccc(OCC5COC(Cn6cncn6)(c6ccc(Cl)cc6Cl)O5)cc4)CC3)cc2)c1=O (stereo not given) [ITRACONAZOLE] |  | 3 |  | 4 | MIC [1]: 0.19 µg/mL (≈ 0.269 µM); MIC [9]: 0.12 µg/mL (≈ 0.17 µM); MIC [6]: 0.39 µg/mL (≈ 0.553 µM); MIC [3]: 0.14 µg/mL and 0.39 µg/mL; MIC [7]: 0.19 µg/mL (≈ 0.269 µM); MIC [8]: 0.05 µg/mL (≈ 0.0709 µM) |
| CC(c1ncnc(Cl)c1F)C(O)(Cn1cncn1)c1ccc(F)cc1F (stereo not given) | 3.1 µg/mL (≈ 8.08 µM) |  | 3.1 µg/mL (≈ 8.08 µM) |  |  |
| CC(c1ncncc1F)C(O)(Cn1cncn1)c1ccc(F)cc1F (stereo not given) | 0.78 µg/mL (≈ 2.23 µM) | 4 | 0.39 µg/mL (≈ 1.12 µM) | 5 |  |
| OC(Cn1cncn1)(Cn1cncn1)c1ccc(F)cc1F [FLUCONAZOLE] | > 50 µg/mL |  | > 50 µg/mL |  | MIC [9]: 1 µg/mL (≈ 3.27 µM); MIC [6]: 9.6 µg/mL (≈ 31.3 µM); MIC [7]: 1.9 µg/mL (≈ 6.2 µM); MIC [8]: > 25 µg/mL |
